Legend:
[1] = Deionized water-solidifying test (base for solidifying moisture-containing compositions); format: physicochemical; conditions: 25° C.; for (Appearance) / Condition: after 20 hours from the dissolution; for Time of solidification completed / Time of solidification started: monitored for 2 hours
Source text: After completing the dissolution, each test solution was further stirred for four minutes and then the stirring was stopped. Successively, each test solution was left to stand and a solidification of the test solution by the crystallization of hydrous crystalline maltose was monitored macroscopically for two hours. In the cases of the solidified samples, the time of starting the crystallization and that of completing the solidification were checked. (However, the test solution dissolving 18.8 g of crystal was stopped stirring at three minutes after the dissolution because the crystallization of hydrous crystalline maltose was started immediately.) After monitoring macroscopically for two hours, each vessel containing any one of the sample solutions was closed and further left to stand for 18 hours. Then, the condition (appearance) of the test samples after 20 hours from the dissolution was monitored macroscopically and evaluated by the following three phases: (1) clear solution; (2) clouded solution; and (3) solidified. The samples prepared by using 10.0 g, 11.5 g, 13.3 g, or 18.8 g of the anhydrous crystalline α-maltose used in Example 2, as a substitute of the test samples, were treated by the same procedure as controls. The test was carried out in a room where a temperature was kept at 25° C. The results of each sample after 2 and 20 hours are shown in Table 5 and FIG. 13, and Table 6 and FIG. 14, respectively.

[2] = Hygroscopicity test (moisture content under controlled relative humidity); format: physicochemical; conditions: 27° C., listed as AC α-Mal (Control 2)
Experimental: Moisture contents of the samples at respective periods were measured based on the change of weight from the start of the test. The moisture contents of the samples at the start of the test were measured by Karl Fischer's method.

[3] = Powderizing test by admixing deionized water; format: physicochemical; conditions: 25° C., listed as Anhydrous crystalline α-maltose (Control)
Experimental: (§1) The usefulness of the crystal was judged by the amount of deionized water added to the limit of keeping the powder form. The form of the powder was evaluated by the following four phases: (1) powder; (2) lump (it keeps a powder form while it comprises lumps); (3) cake; and (4) paste. As a control, the anhydrous crystalline α-maltose used in Example 2 was treated by the same procedure. The test was carried out in a room where the temperature was kept at 25° C. The results of the test and the form of each sample after admixing with 1.25 ml of deionized water are shown in Table 7 and FIG. 15, respectively.

[4] = Specific surface area by nitrogen adsorption isotherms (BET); format: physicochemical; conditions: BET method, listed as anhydrous crystalline α-maltose of Control 2
Experimental: About 3 g of the anhydrous crystalline β-maltose, obtained in Example 1, was dried in the apparatus under a reduced pressure at about 40° C. for about 15 hours as a pretreatment, and then used for the measurement of specific surface area by the nitrogen adsorption isotherms. The result was analyzed by conventional BET (Brunnauer, Emmet, and Teller) method.

[5] = Powderizing test by admixing dehydrated ethanol; format: physicochemical; conditions: listed as Anhydrous crystalline α-maltose (Control)
Experimental: as §1, with “respectively. […] The results of the test and the form of each sample after admixing with 6 ml of dehydrated ethanol are shown in Table 8 and FIG. 16, respectively.” for “respectively.”

[6] = mercury filling method
[7] = 10.0 g dissolved in 10 g deionized water (50.0%)
[8] = 10.0 g dissolved in 10 g deionized water (calc. conc. 50.0%)
[9] = 11.5 g dissolved in 10 g deionized water (53.5%)
[10] = 11.5 g dissolved in 10 g deionized water (calc. conc. 53.5%)
[11] = 13.3 g dissolved in 10 g deionized water (57.0%)
[12] = 13.3 g dissolved in 10 g deionized water (calc. conc. 57.0%)
[13] = 18.8 g dissolved in 10 g deionized water (calc. conc. 65.0%)
[14] = control values originate from space between crystal particles, not pores

SMILES: OC[C@H]1O[C@H](O[C@H]2[C@H](O)[C@@H](O)[C@H](O)O[C@@H]2CO)[C@H](O)[C@@H](O)[C@@H]1O [anhydrous crystalline α-maltose]
- (Appearance) [1, 7]: (Clear solution)
- Condition [1, 7]: Not solidified
- Time of solidification completed [1, 8]: Not solidified
- Time of solidification started [1, 8]: Not solidified
- (Appearance) [1, 9]: (Clear solution)
- Condition [1, 9]: Not solidified
- Time of solidification completed [1, 10]: Not solidified
- Time of solidification started [1, 10]: Not solidified
- (Appearance) [1, 11]: (Clouded solution)
- Condition [1, 11]: Not solidified
- Time of solidification completed [1, 12]: Not solidified
- Time of solidification started [1, 12]: Not solidified
- Condition ([1]; 18.8 g dissolved in 10 g deionized water (65.0%)): Solidified
- Time of solidification completed [1, 13]: Not solidified
- Time of solidification started [1, 13]: Not solidified
- Moisture content of samples ([2]; RH 47% (lithium nitrate), 0 hour (start, Karl Fischer)): 0.74 %, w/w
- Moisture content of samples ([2]; RH 47% (lithium nitrate), 2 hours): 0.70 %, w/w
- Moisture content of samples ([2]; RH 47% (lithium nitrate), 4 hours): 0.70 %, w/w
- Moisture content of samples ([2]; RH 47% (lithium nitrate), 24 hours): 0.65 %, w/w
- Moisture content of samples ([2]; RH 47% (lithium nitrate), 96 hours): 0.71 %, w/w
- Moisture content of samples ([2]; RH 47% (lithium nitrate), 192 hours): 0.70 %, w/w
- Moisture content of samples ([2]; RH 58% (sodium bromide), 0 hour (start, Karl Fischer)): 0.74 %, w/w
- Moisture content of samples ([2]; RH 58% (sodium bromide), 2 hours): 0.74 %, w/w
- Moisture content of samples ([2]; RH 58% (sodium bromide), 4 hours): 0.76 %, w/w
- Moisture content of samples ([2]; RH 58% (sodium bromide), 6 hours): 0.80 %, w/w
- Moisture content of samples ([2]; RH 58% (sodium bromide), 8 hours): 0.79 %, w/w
- Moisture content of samples ([2]; RH 58% (sodium bromide), 24 hours): 0.83 %, w/w
- Moisture content of samples ([2]; RH 58% (sodium bromide), 96 hours): 0.98 %, w/w
- Moisture content of samples ([2]; RH 58% (sodium bromide), 192 hours): 0.91 %, w/w
- Moisture content of samples ([2]; RH 75% (sodium chloride), 0 hour (start, Karl Fischer)): 0.74 %, w/w
- Moisture content of samples ([2]; RH 75% (sodium chloride), 2 hours): 1.18 %, w/w
- Moisture content of samples ([2]; RH 75% (sodium chloride), 4 hours): 2.44 %, w/w
- Moisture content of samples ([2]; RH 75% (sodium chloride), 6 hours): 2.88 %, w/w
- Moisture content of samples ([2]; RH 75% (sodium chloride), 8 hours): 3.14 %, w/w
- Moisture content of samples ([2]; RH 75% (sodium chloride), 24 hours): 3.84 %, w/w
- Moisture content of samples ([2]; RH 75% (sodium chloride), 96 hours): 3.85 %, w/w
- Moisture content of samples ([2]; RH 75% (sodium chloride), 192 hours): 4.49 %, w/w
- Moisture content of samples ([2]; RH 90% (barium chloride), 0 hour (start, Karl Fischer)): 0.74 %, w/w
- Moisture content of samples ([2]; RH 90% (barium chloride), 2 hours): 1.79 %, w/w
- Moisture content of samples ([2]; RH 90% (barium chloride), 4 hours): 4.30 %, w/w
- Moisture content of samples ([2]; RH 90% (barium chloride), 6 hours): 6.29 %, w/w
- Moisture content of samples ([2]; RH 90% (barium chloride), 8 hours): 7.82 %, w/w
- Moisture content of samples ([2]; RH 90% (barium chloride), 24 hours): 15.78 %, w/w
- Moisture content of samples ([2]; RH 90% (barium chloride), 96 hours): 17.77 %, w/w
- Moisture content of samples ([2]; RH 90% (barium chloride), 192 hours): 14.38 %, w/w
- Form of the powder after admixing deionized water ([3]; 10 g crystal + 0.75 ml water (moisture content 7.0%, w/w)): Lump form
- Form of the powder after admixing deionized water ([3]; 10 g crystal + 1.00 ml water (moisture content 9.1%, w/w)): Cake form
- Form of the powder after admixing deionized water ([3]; 10 g crystal + 1.25 ml water (moisture content 11.1%, w/w)): Paste form
- Specific surface area [4]: 0.48 m^2/g
- Form of the powder after admixing dehydrated ethanol ([5]; 10 g crystal + 3.5 ml ethanol (27.5 v/w %)): Lump form
- Form of the powder after admixing dehydrated ethanol ([5]; 10 g crystal + 4.0 ml ethanol (30.5 v/w %)): Cake form
- Form of the powder after admixing dehydrated ethanol ([5]; 10 g crystal + 4.5 ml ethanol (33.3 v/w %)): Cake form
- Form of the powder after admixing dehydrated ethanol ([5]; 10 g crystal + 5.0 ml ethanol (36.0 v/w %)): Cake form
- Form of the powder after admixing dehydrated ethanol ([5]; 10 g crystal + 5.5 ml ethanol (38.5 v/w %)): Paste form
- Form of the powder after admixing dehydrated ethanol ([5]; 10 g crystal + 6.0 ml ethanol (40.9 v/w %)): Paste form
- Intrusion volume ([6]; initial pressure 15 kPa): (No pore)
- Median pore diameter [6, 14]: 13.00 μm
- Mode pore diameter [6, 14]: 20.70 μm
